Test results as given in the NIST ThermoML archive (doi:10.1021/je400894j).

Test: mn = molality of the nth substance listed, in mol/kg
Conditions: 101 kPa, Liquid, Falling or rolling sphere viscometry

O=C([O-])CC(O)(CC(=O)[O-])C(=O)[O-].[Na+].[Na+].[Na+] [trisodium citrate] + O
viscosity [mPa·s]
Conditions | 288.15 K | 298.15 K | 308.15 K | 318.15 K
m1 = 0.2 | 1.343 | 1.056 | 0.858 | 0.719
m1 = 0.4 | 1.661 | 1.296 | 1.047 | 0.868
m1 = 0.6 | 2.072 | 1.592 | 1.277 | 1.049
m1 = 0.8 | 2.633 | 2.002 | 1.581 | 1.287
